According to the NIST ThermoML archive (doi:10.1021/je800786k):

Conditions: Liquid, Vibrating tube method

CCCCCCC(C)N (stereo not given) [1-methylheptylamine]
Conditions | mass density [kg/m3]
293.15 K, 100 kPa | 772
293.15 K, 10000 kPa | 778.7
293.15 K, 20000 kPa | 784.8
293.15 K, 30000 kPa | 790.6
293.15 K, 40000 kPa | 796.1
293.15 K, 50000 kPa | 801.2
293.15 K, 60000 kPa | 806
293.15 K, 70000 kPa | 810.6
293.15 K, 80000 kPa | 815
293.15 K, 90000 kPa | 819.1
293.15 K, 100000 kPa | 823.2
293.15 K, 110000 kPa | 826.9
293.15 K, 120000 kPa | 830.6
293.15 K, 130000 kPa | 834.2
293.15 K, 140000 kPa | 837.6
303.15 K, 100 kPa | 764
303.15 K, 10000 kPa | 771.3
303.15 K, 20000 kPa | 777.8
303.15 K, 30000 kPa | 783.8
303.15 K, 40000 kPa | 789.2
303.15 K, 50000 kPa | 794.5
303.15 K, 60000 kPa | 799.5
303.15 K, 70000 kPa | 804.2
303.15 K, 80000 kPa | 808.7
303.15 K, 90000 kPa | 813
303.15 K, 100000 kPa | 817.1
303.15 K, 110000 kPa | 821
303.15 K, 120000 kPa | 824.8
303.15 K, 130000 kPa | 828.5
303.15 K, 140000 kPa | 832
313.15 K, 100 kPa | 755.8
313.15 K, 10000 kPa | 763.5
313.15 K, 20000 kPa | 770.4
313.15 K, 30000 kPa | 776.7
313.15 K, 40000 kPa | 782.5
313.15 K, 50000 kPa | 788.1
313.15 K, 60000 kPa | 793.2
313.15 K, 70000 kPa | 798.1
313.15 K, 80000 kPa | 802.7
313.15 K, 90000 kPa | 807.1
313.15 K, 100000 kPa | 811.4
313.15 K, 110000 kPa | 815.5
313.15 K, 120000 kPa | 819.4
313.15 K, 130000 kPa | 823.1
313.15 K, 140000 kPa | 826.7
323.15 K, 100 kPa | 748.1
323.15 K, 10000 kPa | 756
323.15 K, 20000 kPa | 763.2
323.15 K, 30000 kPa | 769.9
323.15 K, 40000 kPa | 776
323.15 K, 50000 kPa | 781.6
323.15 K, 60000 kPa | 787.1
323.15 K, 70000 kPa | 792.2
323.15 K, 80000 kPa | 797
323.15 K, 90000 kPa | 801.5
323.15 K, 100000 kPa | 805.9
323.15 K, 110000 kPa | 810.1
323.15 K, 120000 kPa | 814.1
323.15 K, 130000 kPa | 818
323.15 K, 140000 kPa | 821.6
333.15 K, 100 kPa | 739.6
333.15 K, 10000 kPa | 748.1
333.15 K, 20000 kPa | 755.5
333.15 K, 30000 kPa | 762.6
333.15 K, 40000 kPa | 769
333.15 K, 50000 kPa | 775
333.15 K, 60000 kPa | 780.6
333.15 K, 70000 kPa | 785.8
333.15 K, 80000 kPa | 790.9
333.15 K, 90000 kPa | 795.5
333.15 K, 100000 kPa | 800
333.15 K, 110000 kPa | 804.4
333.15 K, 120000 kPa | 808.5
333.15 K, 130000 kPa | 812.5
333.15 K, 140000 kPa | 816.3
343.15 K, 100 kPa | 731.5
343.15 K, 10000 kPa | 740.5
343.15 K, 20000 kPa | 748.6
343.15 K, 30000 kPa | 756
343.15 K, 40000 kPa | 762.7
343.15 K, 50000 kPa | 768.9
343.15 K, 60000 kPa | 774.7
343.15 K, 70000 kPa | 780.2
343.15 K, 80000 kPa | 785.3
343.15 K, 90000 kPa | 790.2
343.15 K, 100000 kPa | 794.9
343.15 K, 110000 kPa | 799.2
343.15 K, 120000 kPa | 803.4
343.15 K, 130000 kPa | 807.5
343.15 K, 140000 kPa | 811.4
353.15 K, 100 kPa | 723.2
353.15 K, 10000 kPa | 733
353.15 K, 20000 kPa | 741.6
353.15 K, 30000 kPa | 749.3
353.15 K, 40000 kPa | 756.2
353.15 K, 50000 kPa | 762.7
353.15 K, 60000 kPa | 768.7
353.15 K, 70000 kPa | 774.4
353.15 K, 80000 kPa | 779.7
353.15 K, 90000 kPa | 784.7
353.15 K, 100000 kPa | 789.5
353.15 K, 110000 kPa | 794.1
353.15 K, 120000 kPa | 798.4
353.15 K, 130000 kPa | 802.3
353.15 K, 140000 kPa | 806.3
363.15 K, 100 kPa | 714.7
363.15 K, 10000 kPa | 724.9
363.15 K, 20000 kPa | 734
363.15 K, 30000 kPa | 742
363.15 K, 40000 kPa | 749.3
363.15 K, 50000 kPa | 756.1
363.15 K, 60000 kPa | 762.4
363.15 K, 70000 kPa | 768.3
363.15 K, 80000 kPa | 773.8
363.15 K, 90000 kPa | 779
363.15 K, 100000 kPa | 783.9
363.15 K, 110000 kPa | 788.5
363.15 K, 120000 kPa | 793
363.15 K, 130000 kPa | 797.3
363.15 K, 140000 kPa | 801.4
373.15 K, 100 kPa | 706
373.15 K, 10000 kPa | 717.2
373.15 K, 20000 kPa | 726.6
373.15 K, 30000 kPa | 735.2
373.15 K, 40000 kPa | 742.9
373.15 K, 50000 kPa | 749.9
373.15 K, 60000 kPa | 756.8
373.15 K, 70000 kPa | 762.8
373.15 K, 80000 kPa | 768.5
373.15 K, 90000 kPa | 773.8
373.15 K, 100000 kPa | 778.9
373.15 K, 110000 kPa | 783.7
373.15 K, 120000 kPa | 788.3
373.15 K, 130000 kPa | 792.8
373.15 K, 140000 kPa | 796.8
383.15 K, 100 kPa | 697.6
383.15 K, 10000 kPa | 709.4
383.15 K, 20000 kPa | 719.5
383.15 K, 30000 kPa | 728.5
383.15 K, 40000 kPa | 736.4
383.15 K, 50000 kPa | 743.8
383.15 K, 60000 kPa | 750.6
383.15 K, 70000 kPa | 756.8
383.15 K, 80000 kPa | 762.7
383.15 K, 90000 kPa | 768.1
383.15 K, 100000 kPa | 773.3
383.15 K, 110000 kPa | 778.3
383.15 K, 120000 kPa | 783
383.15 K, 130000 kPa | 787.5
383.15 K, 140000 kPa | 791.8
393.15 K, 100 kPa | 689
393.15 K, 10000 kPa | 701.6
393.15 K, 20000 kPa | 712.3
393.15 K, 30000 kPa | 721.7
393.15 K, 40000 kPa | 730
393.15 K, 50000 kPa | 737.9
393.15 K, 60000 kPa | 744.9
393.15 K, 70000 kPa | 751.4
393.15 K, 80000 kPa | 757.5
393.15 K, 90000 kPa | 763.2
393.15 K, 100000 kPa | 768.6
393.15 K, 110000 kPa | 773.6
393.15 K, 120000 kPa | 778.4
393.15 K, 130000 kPa | 782.8
393.15 K, 140000 kPa | 787.2
403.15 K, 100 kPa | 680.1
403.15 K, 10000 kPa | 693.5
403.15 K, 20000 kPa | 705
403.15 K, 30000 kPa | 714.8
403.15 K, 40000 kPa | 723.5
403.15 K, 50000 kPa | 731.5
403.15 K, 60000 kPa | 738.7
403.15 K, 70000 kPa | 745.4
403.15 K, 80000 kPa | 751.6
403.15 K, 90000 kPa | 757.5
403.15 K, 100000 kPa | 763.1
403.15 K, 110000 kPa | 768.3
403.15 K, 120000 kPa | 773.2
403.15 K, 130000 kPa | 777.9
403.15 K, 140000 kPa | 782.4
